Experimental data as given in paper PMC7501296, “Rapid and direct control of target protein levels with VHL-recruiting dTAG molecules” (Nature Communications, 2020).

System: LACZ-FKBP12^F36V
Experiment: Immunoblot of PATU-8902 LACZ-FKBP12F36V clone
Type: cell-based
Conditions: PATU-8902 LACZ-FKBP12F36V cells, 4 h
Experimental: PATU-8902 LACZ-FKBP12^F36V and FKBP12^F36V-KRAS^G12V; KRAS^−/− cells and 293T cells were lysed with RIPA buffer supplemented with cOmplete protease inhibitors (Roche), PhosSTOP phosphatase inhibitors (Roche), and 0.1% benzonase (Novagen). Proteins were separated using NuPAGE Bolt^TM Bis–Tris gels (Thermo Fisher Scientific) and transferred to nitrocellulose membranes, which were blocked with Odyssey Blocking Buffer (LI-COR) and incubated with primary antibodies overnight. Membranes were washed three times with TBS-T, incubated with the appropriate fluorescently labeled infrared secondary antibodies, washed again three times with TBS-T, and assessed using an Odyssey CLx Imager (LI-COR)[6],[15]. EWS502 cells were lysed with Cell Lysis Buffer (Cell Signaling Technology) supplemented with cOmplete protease inhibitors (Roche). Proteins were separated using SDS-PAGE gels and transferred to PVDF membranes, which were blocked with 5% milk in TBS-T and incubated with primary antibodies overnight. Membranes were washed five times with TBS-T, incubated with the appropriate horseradish peroxidase-conjugated secondary antibodies, washed again five times with TBS-T, and imaged. […]

SMILES: CC[C@H](C(=O)N1CCCC[C@H]1C(=O)O[C@H](CCc1ccc(OC)c(OC)c1)c1ccccc1OCC(=O)NCCCCCCC(=O)N[C@H](C(=O)N1C[C@H](O)C[C@H]1C(=O)N[C@@H](C)c1ccc(-c2scnc2C)cc1)C(C)(C)C)c1cc(OC)c(OC)c(OC)c1 [dTAG^V-1]
- Degradation of FKBP12F36V-fusion (LACZ-FKBP12F36V), immunoblot: effective degradation
